According to patent US20230062119A1, “USE OF BIOMARKERS IN IDENTIFYING PATIENTS THAT WILL BE RESPONSIVE TO TREATMENT WITH A PRMT5 INHIBITOR” (Merck Sharp & Dohme LLC, priority 2019, published 2023):
Where two headings read alike, the source gives them in different places.

Target: T1, Full-length (FL)-PRMT5-MEP50 enzyme complex (Homo sapiens, UniProt O14744)
T1 construct: Full-length (FL)-PRMT5-MEP50 enzyme complex (recombinant proteins from baculovirus-transfected Sf21 cells: FL-PRMT5; MW=73837 kDa and FL-MEP50; MW=38614); made in house; host or cells: baculovirus-transfected Sf21 insect cells
Assay: PRMT5-MEP50 Enzyme Methylation Assay
Format: biochemical
Details: 1.0 nM PRMT5-MEP50, 75 nM biotinylated peptide, 15 μM SAM
Procedure, shortened: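 Compound was pre-incubated 60 min at 37°C with 1.0 nM enzyme and 15 μM SAM (final) in 50 mM Bicine pH 8.0, then 75 nM biotinylated H4R3(Me1) peptide was added and reacted 150 min; twenty-point 1:2 titration from 100000 nM, 1% DMSO. Formic acid quench; SAMDI mass spectrometry measured Me1-to-Me2 conversion, EC50 by 4- or 7-parameter regression.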

[1] = one EC50: 4 parameters single site sigmoidal model, EC50 1: first value of 7 parameters biphasic model, read-out: Enzyme Methylation Assay (EC50 or EC50 1)
[2] = second EC50 of 7 parameters biphasic model, read-out: Enzyme Methylation Assay (EC50 2)

T1 sequence (O14744 whole entry): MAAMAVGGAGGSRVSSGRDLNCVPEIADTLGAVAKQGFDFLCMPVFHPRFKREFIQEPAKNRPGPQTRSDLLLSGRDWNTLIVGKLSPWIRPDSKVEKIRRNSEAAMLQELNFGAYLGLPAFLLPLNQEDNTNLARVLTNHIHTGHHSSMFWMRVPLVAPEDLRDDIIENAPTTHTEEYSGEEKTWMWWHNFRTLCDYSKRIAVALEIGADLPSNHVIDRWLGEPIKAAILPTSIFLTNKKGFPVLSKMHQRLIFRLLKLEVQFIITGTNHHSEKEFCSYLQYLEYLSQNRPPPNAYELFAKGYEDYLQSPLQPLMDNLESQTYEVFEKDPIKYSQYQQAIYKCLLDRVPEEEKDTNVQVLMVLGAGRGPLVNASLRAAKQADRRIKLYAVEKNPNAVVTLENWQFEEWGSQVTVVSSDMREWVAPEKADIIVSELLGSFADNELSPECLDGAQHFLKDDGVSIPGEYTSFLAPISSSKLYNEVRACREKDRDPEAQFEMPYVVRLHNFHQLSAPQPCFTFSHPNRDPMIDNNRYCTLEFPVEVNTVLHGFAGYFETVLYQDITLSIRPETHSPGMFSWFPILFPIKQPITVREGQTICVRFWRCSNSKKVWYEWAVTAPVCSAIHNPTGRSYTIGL
T1 sequence (Q9BQA1 whole entry partner): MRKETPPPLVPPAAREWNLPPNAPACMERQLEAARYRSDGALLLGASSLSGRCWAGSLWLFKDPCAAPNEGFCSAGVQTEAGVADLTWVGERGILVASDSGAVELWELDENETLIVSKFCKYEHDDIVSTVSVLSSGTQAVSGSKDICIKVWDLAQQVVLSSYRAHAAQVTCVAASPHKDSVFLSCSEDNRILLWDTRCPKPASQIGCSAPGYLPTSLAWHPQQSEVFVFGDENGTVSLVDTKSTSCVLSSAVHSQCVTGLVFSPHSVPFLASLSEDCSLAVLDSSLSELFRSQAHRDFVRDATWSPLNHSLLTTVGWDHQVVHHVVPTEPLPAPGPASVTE

Compound | EC50 [1] [nM] | EC50 [2] [nM]
Cc1ncnc2c1c(F)cn2[C@@H]1O[C@@H]2[C@H](Cc3ccc4cc(Br)c(N)nc4c3)CC[C@]2(O)[C@H]1O [Example 84, (2R,3R,3aS,6S,6aR)-6-((2-amino-3-bromoquinolin-7-yl)methyl)-2-(5-fluoro-4-methyl-7H-pyrrolo[2,3-d]pyrimidin-7-yl)hexahydro-3aH-cyclopenta[b]furan-3,3a-diol] | 0.6 | –
Nc1nc2cc(C[C@@H]3CC[C@@]4(O)[C@@H]3O[C@@H](n3ccc5c(N)ncnc53)[C@@H]4O)cc(F)c2cc1Cl [Example 21, (2R,3R,3aS,6S,6aR)-6-[(2-amino-3-chloro-5-fluoroquinolin-7-yl)methyl]-2-(4-amino-7H-pyrrolo[2,3-d]pyrimidin-7-yl)hexahydro-3aH-cyclopenta[b]furan-3,3a-diol] | 0.8 | –
Nc1nc2cc(C[C@@H]3CC[C@@]4(O)[C@@H]3O[C@@H](n3cc(F)c5c(N)ncnc53)[C@@H]4O)ccc2cc1F [Example 59, (2R,3R,3aS,6S,6aR)-6-((2-amino-3-fluoroquinolin-7-yl)methyl)-2-(4-amino-5-fluoro-7H-pyrrolo[2,3-d]pyrimidin-7-yl)hexahydro-3aH-cyclopenta[b]furan-3,3a-diol] | 0.6 | –
Cc1ncnc2c1ccn2[C@@H]1O[C@@H]2[C@@H](Nc3ccc4cc(F)c(N)nc4c3)CC[C@]2(O)[C@H]1O [Example 120, (2R,3R,3aS,6S,6aR)-6-((2-amino-3-fluoroquinolin-7-yl)amino)-2-(4-methyl-7H-pyrrolo[2,3-d]pyrimidin-7-yl)hexahydro-3aH-cyclopenta[b]furan-3,3a-diol] | 0.6 | –
Nc1nc2cc(O[C@H]3CC[C@@]4(O)[C@@H]3O[C@@H](n3ccc5c(CO)ncnc53)[C@@H]4O)ccc2cc1Br [Example 77, (2R,3R,3aS,6S,6aR)-6-[(2-amino-3-bromoquinolin-7-yl)oxy]-2-[4-(hydroxymethyl)-7H-pyrrolo[2,3-d]pyrimidin-7-yl]hexahydro-3aH-cyclopenta[b]furan-3,3a-diol] | 2 | 243
C[C@]1(COc2ccc3cc(Br)c(N)nc3c2)C[C@@H](n2ccc3c(N)ncnc32)[C@H](O)[C@]1(C)O [Example 111, (1R,2S,3R,5R)-5-(((2-amino-3-bromoquinolin-7-yl)oxy)methyl)-3-(4-amino-7H-pyrrolo[2,3-d]pyrimidin-7-yl)-1,5-dimethylcyclopentane-1,2-diol] | 30.6 | 2660
C[C@]1(CCc2ccc3cc4c(nc3c2)NCC4)C[C@@H](n2ccc3c(N)ncnc32)[C@H](O)[C@@H]1O [Example 126, (1S,2R,3S,5R)-5-(4-amino-7H-pyrrolo[2,3-d]pyrimidin-7-yl)-3-(2-(2,3-dihydro-1H-pyrrolo[2,3-b]quinolin-7-yl)ethyl)-3-methylcyclopentane-1,2-diol] | 0.6 | –
Nc1ncc2c(F)cn([C@@H]3O[C@@H]4[C@@H](Oc5ccc6cc(Br)c(N)nc6c5)CC[C@]4(O)[C@H]3O)c2n1 [Example 130, (2R,3R,3aS,6S,6aR)-6-((2-amino-3-bromoquinolin-7-yl)oxy)-2-(2-amino-5-fluoro-7H-pyrrolo[2,3-d]pyrimidin-7-yl)hexahydro-3aH-cyclopenta[b]furan-3,3a-diol] | 0.6 | –
Cc1cn([C@@H]2O[C@@H]3[C@H](Cc4ccc5cc(F)c(N)nc5c4)CC[C@]3(O)[C@H]2O)c2ncnc(N)c12 [Example 62, (2R,3R,3aS,6S,6aR)-6-((2-amino-3-fluoroquinolin-7-yl)methyl)-2-(4-amino-5-methyl-7H-pyrrolo[2,3-d]pyrimidin-7-yl)hexahydro-3aH-cyclopenta[b]furan-3,3a-diol 2,2,2-trifluoroacetate] | 0.5 | –
Cc1ncnc2c1ccn2[C@@H]1O[C@@H]2[C@H](Cc3ccc4cc(Cl)c(N)nc4c3F)CC[C@]2(O)[C@H]1O [Example 22, (2R,3R,3aS,6S,6aR)-6-[(2-amino-3-chloro-8-fluoroquinolin-7-yl)methyl]-2-(4-methyl-7H-pyrrolo[2,3-d]pyrimidin-7-yl)hexahydro-3aH-cyclopenta[b]furan-3,3a-diol] | 1 | –
Nc1nc2cc(C[C@@H]3CC[C@@]4(O)[C@@H]3O[C@@H](n3ccc5c(N)ncnc53)[C@@H]4O)ccc2cc1C(F)(F)F [compound 76, (2R,3R,3aS,6S,6aR)-6-((2-amino-3-(trifluoromethyl)quinolin-7-yl)methyl)-2-(4-amino-7H-pyrrolo[2,3-d]pyrimidin-7-yl)hexahydro-3aH-cyclopenta[b]furan-3,3a-diol] | 0.9 | –
C[C@@]1(O)[C@@H](CCc2ccc3cc(Br)c(N)nc3c2)C[C@@H](n2ccc3c(N)ncnc32)[C@@H]1O [Example 103, (1R,2S,3R,5S)-5-(2-(2-amino-3-bromoquinolin-7-yl)ethyl)-3-(4-amino-7H-pyrrolo[2,3-d]pyrimidin-7-yl)-1-methylcyclopentane-1,2-diol] | 0.4 | 40.7
C[C@@]1(O)[C@@H](COc2ccc3cccnc3c2)O[C@@H](n2ccc3c(N)ncnc32)[C@@H]1O [Example 99, (2R,3S,4R,5R)-5-(4-amino-7H-pyrrolo[2,3-d]pyrimidin-7-yl)-3-methyl-2-((quinolin-7-yloxy)methyl)tetrahydrofuran-3,4-diol] | 1.7 | 1880
Nc1nc2cc(O[C@H]3CC[C@@]4(O)[C@@H]3O[C@@H](n3ccc5c(Cl)ncnc53)[C@@H]4O)ccc2cc1Br [Example 5, (2R,3R,3aS,6S,6aR)-6-((2-amino-3-bromoquinolin-7-yl)oxy)-2-(4-chloro-7H-pyrrolo[2,3-d]pyrimidin-7-yl)hexahydro-2H-cyclopenta[b]furan-3,3a-diol] | 0.8 | –
C[C@@]1(O)[C@@H](COc2ccc3cc(Br)c(N)nc3c2)C[C@@H](n2ccc3c(Cl)ncnc32)[C@@H]1O [Example 1, (1R,2S,3R,5R)-5-(((2-amino-3-bromoquinolin-7-yl)oxy)methyl)-3-(4-chloro-7H-pyrrolo[2,3-d]pyrimidin-7-yl)-1-methylcyclopentane-1,2-diol] | 0.5 | 56

Next, values leading:

EC50 [1] [nM] | EC50 [2] [nM] | Compound
0.4 | – | Nc1ncnc2c1ccn2[C@@H]1O[C@@H]2[C@@H](Oc3ccc4ccc(NCC5CC5)nc4c3)CC[C@]2(O)[C@H]1O [Example 58, (2R,3R,3aS,6S,6aR)-2-(4-amino-7H-pyrrolo[2,3-d]pyrimidin-7-yl)-6-((2-((cyclopropylmethyl)amino)quinolin-7-yl)oxy)hexahydro-3aH-cyclopenta[b]furan-3,3a-diol]
0.5 | 89 | C[C@]1(COc2ccc3cc(Br)c(N)nc3c2)O[C@@H](n2ccc3c(N)ncnc32)[C@H](O)[C@@H]1O [Example 13, (2R,3S,4R,5R)-2-(((2-amino-3-bromoquinolin-7-yl)oxy)methyl)-5-(4-amino-7H-pyrrolo[2,3-d]pyrimidin-7-yl)-2-methyltetrahydrofuran-3,4-diol]
0.3 | – | Cc1cn([C@@H]2O[C@@H]3[C@H](Cc4ccc5cc(Cl)c(N)nc5c4)CC[C@]3(O)[C@H]2O)c2ncnc(N)c12 [Example 66, (2R,3R,3aS,6S,6aR)-6-((2-amino-3-chloroquinolin-7-yl)methyl)-2-(4-amino-5-methyl-7H-pyrrolo[2,3-d]pyrimidin-7-yl)hexahydro-3aH-cyclopenta[b]furan-3,3a-diol]
0.3 | – | Nc1nc2cc(C[C@@H]3CC[C@@]4(O)[C@@H]3C[C@@H](n3cc(F)c5c(N)ncnc53)[C@@H]4O)ccc2cc1Br [Example 42, (1S,2R,3aR,4S,6aR)-4-((2-amino-3-bromoquinolin-7-yl)methyl)-2-(4-amino-5-fluoro-7H-pyrrolo[2,3-d]pyrimidin-7-yl)hexahydropentalene-1,6a(1H)-diol]
0.5 | – | Cc1ncnc2c1ccn2[C@@H]1O[C@@H]2[C@H](Cc3ccc4cc(Br)c(N)nc4c3)CC[C@]2(O)[C@H]1O [Example 8, (2R,3R,3aS,6S,6aR)-6-((2-amino-3-bromoquinolin-7-yl)methyl)-2-(4-methyl-7H-pyrrolo[2,3-d]pyrimidin-7-yl)hexahydro-2H-cyclopenta[b]furan-3,3a-diol]
0.4 | – | CNc1ncnc2c1ccn2[C@@H]1C[C@@H]2[C@H](Cc3ccc4cc(Br)c(N)nc4c3)CC[C@]2(O)[C@H]1O [Example 97, (1S,2R,3aR,4S,6aR)-4-((2-amino-3-bromoquinolin-7-yl)methyl)-2-(4-(methylamino)-7H-pyrrolo[2,3-d]pyrimidin-7-yl)hexahydropentalene-1,6a(1H)-diol]
0.4 | – | Cc1nc(C)c2ccn([C@@H]3O[C@@H]4[C@H](Cc5ccc6cc(Cl)c(N)nc6c5)CC[C@]4(O)[C@H]3O)c2n1 [Example 91, (2R,3R,3aS,6S,6aR)-6-((2-amino-3-chloroquinolin-7-yl)methyl)-2-(2,4-dimethyl-7H-pyrrolo[2,3-d]pyrimidin-7-yl)hexahydro-3aH-cyclopenta[b]furan-3,3a-diol]
0.4 | – | Cc1cn([C@@H]2O[C@@H]3[C@H](Cc4ccc5cc(Br)c(N)nc5c4)OC[C@]3(O)[C@H]2O)c2ncnc(N)c12 [Example 135, (2R,3R,3aS,6S,6aR)-6-((2-amino-3-bromoquinolin-7-yl)methyl)-2-(4-amino-5-methyl-7H-pyrrolo[2,3-d]pyrimidin-7-yl)tetrahydrofuro[3,4-b]furan-3,3a(4H)-diol]
0.3 | – | Cc1cn([C@@H]2C[C@@H]3[C@H](Cc4ccc5cc(Cl)c(N)nc5c4)CC[C@]3(O)[C@H]2O)c2ncnc(N)c12 [Example 39, (1S,2R,3aR,4S,6aR)-4-((2-amino-3-chloroquinolin-7-yl)methyl)-2-(4-amino-5-methyl-7H-pyrrolo[2,3-d]pyrimidin-7-yl)hexahydropentalene-1,6a(1H)-diol]
